Measured values: patent publication US6313095A, “Antiherpes tetrapeptide derivatives having a substituted aspartic acid side chain” (Boehringer Ingelheim (Canada), Ltd., priority 1989, dated 2001)
Where a SMILES comes first, the peptide text is derived from it. [ ]: non-standard residue; d: D form. The star is where a group is joined. ξ: configuration not given here. Asp(3,3-(CH2)4) = N[C@H](C(=O)O)C1(C(=O)O)CCCC1; Gly(1-COOH-cBu) = N[C@H](C(=O)O)C1(C(=O)O)CCC1; cPrCO(2,2,3,3-Me4) = CC1(C)C(C(=O)*)C1(C)C; X1 = CC1CCC(C)C(C(=O)*)C1C(=O)OCCc1ccccc1; Benzoyl(2-Ph) = O=C(c1ccccc1-c1ccccc1)*; ξAsp(3,3-Me2) = CC(C)(C(=O)O)C(N)C(=O)O; X3 = O=C(CCc1ccccc1)C1CCCCC1C(=O)*; Pentanoyl(4-Me) = CC(C)CCC(=O)*; X5 = CC(C)C(CCCCc1ccccc1)C(=O)*; Butanoyl(2-Et) = CCC(CC)C(=O)*; O(2S-octyl) = CCCCCC[C@H](C)O*; Tle = CC(C)(C)[C@H](N)C(=O)O; Leu(ol) = CC(C)C[C@H](N)CO; Hiv = CC(C)[C@H](O)C(=O)O; Isovaleryl = CC(C)CC(=O)*; Morpholide = C1CN(*)CCO1; Pyrrolidide = C1CCN(*)C1; X4 = CC1CCCC(C)C1C(=O)*; X6 = CCCCCCCCN(C)*; Bn = c1ccc(C*)cc1; NEt2 = CCN(CC)*

Molecular target: T1, HSV-1 ribonucleotide reductase (Human herpesvirus 1, UniProt P08543)
T1 construct: HSV-1 ribonucleotide reductase (partially purified) was obtained from quiescent BHK-21/C13 cells infected with strain F HSV-1 virus; endogenous in cells; host or cells: quiescent BHK-21/C13 (hamster) cells infected with HSV-1 strain F; partially purified enzyme preparation
T1 sequence (P08543 whole entry): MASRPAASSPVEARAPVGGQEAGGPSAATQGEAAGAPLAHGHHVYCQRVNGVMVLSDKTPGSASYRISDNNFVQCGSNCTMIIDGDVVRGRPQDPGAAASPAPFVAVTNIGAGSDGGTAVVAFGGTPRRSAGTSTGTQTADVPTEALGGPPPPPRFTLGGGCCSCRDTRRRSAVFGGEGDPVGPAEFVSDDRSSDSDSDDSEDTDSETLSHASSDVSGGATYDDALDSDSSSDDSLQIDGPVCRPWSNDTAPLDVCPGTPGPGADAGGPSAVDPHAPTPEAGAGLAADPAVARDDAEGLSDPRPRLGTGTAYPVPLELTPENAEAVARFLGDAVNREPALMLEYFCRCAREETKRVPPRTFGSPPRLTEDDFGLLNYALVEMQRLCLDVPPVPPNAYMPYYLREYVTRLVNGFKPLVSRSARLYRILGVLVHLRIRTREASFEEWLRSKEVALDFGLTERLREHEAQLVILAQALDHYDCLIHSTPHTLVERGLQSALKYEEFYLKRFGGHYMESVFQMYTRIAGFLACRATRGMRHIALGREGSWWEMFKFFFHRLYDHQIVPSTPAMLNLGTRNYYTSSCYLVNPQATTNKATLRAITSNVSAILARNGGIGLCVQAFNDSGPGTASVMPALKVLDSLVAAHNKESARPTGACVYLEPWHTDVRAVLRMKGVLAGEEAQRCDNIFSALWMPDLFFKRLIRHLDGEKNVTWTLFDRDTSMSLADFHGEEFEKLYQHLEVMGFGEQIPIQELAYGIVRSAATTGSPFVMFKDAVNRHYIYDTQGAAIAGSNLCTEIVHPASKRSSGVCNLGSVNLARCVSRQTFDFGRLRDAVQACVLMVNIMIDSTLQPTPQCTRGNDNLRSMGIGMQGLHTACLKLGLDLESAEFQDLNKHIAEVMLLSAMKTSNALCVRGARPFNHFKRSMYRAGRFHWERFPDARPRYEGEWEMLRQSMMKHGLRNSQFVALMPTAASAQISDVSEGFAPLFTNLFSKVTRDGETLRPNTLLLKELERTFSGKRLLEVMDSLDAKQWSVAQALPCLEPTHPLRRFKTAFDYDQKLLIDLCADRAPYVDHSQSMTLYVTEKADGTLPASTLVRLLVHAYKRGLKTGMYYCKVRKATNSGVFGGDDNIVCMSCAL
Test: Inhibition of Herpes Simplex Virus (HSV, Type 1) Ribonucleotide Reductase
Format: biochemical, herpes simplex virus type 1 (strain F)
Details: concentration producing 50% of the maximal inhibition of enzyme activity; partially purified enzyme; mean of four assays
Source text: Inhibition of Herpes Simplex Virus (HSV, Type 1) Ribonucleotide Reductase
HSV-1 ribonucleotide reductase (partially purified) was obtained from quiescent BHK-21/C13 cells infected with strain F HSV-1 virus at 10 plaque forming units/cell as described by E. A. Cohen et al., J. Gen. Virol., 66, 733 (1985).
b) Assay and Results for Exemplified Peptides
By following the procedure described by P. Gaudreau et al., J. Biol, Chem., 262, 12413 (1987), the assay results listed in the following table were obtained. The assay result for each peptide is expressed as the concentration of the peptide producing 50% of the maximal inhibition (IC50) of enzyme activity. The number of units of the enzyme preparation used in each assay was constant, based on the specific activity of the enzyme preparation. The results are relative to the activity obtained in control experiments without peptide and represent the mean of four assays that varied less than 10% with each other.

| SMILES | IC50 |
| --- | --- |
| CCC(CC)C(=O)N[C@H](C(=O)N[C@@H](CC(=O)N1CCCC1)C(=O)N[C@@H](CC(=O)O)C(=O)NCCC(C)(C)C)c1ccccc1 [(C2 H5)2 CHCO-Phg-Asp(pyrrolidino)-Asp-NHCH2 CH2 C(CH3)3] | 40000 nM |
| CC[C@H](C)[C@H](NC(=O)C1C(C)CCCC1C)C(=O)N[C@@H](CC(=O)N1CCCC1)C(=O)N[C@@H](CC(=O)O)C(=O)N[C@@H](CC(C)C)C(=O)O (stereo partly drawn) [(2,6-Dimethylcyclohexyl)carbonyl-Ile-Asp(pyrrolidino)-Asp-Leu-OH] (X4-ID(Pyrrolidide)DL-OH) | 2100 nM |
| CCC(CC)C(=O)N[C@H](C(=O)N[C@@H](CC(=O)N1CCCC1)C(=O)N[C@H](C(=O)N[C@H](CO)CC(C)C)C1(C(=O)O)CCCC1)C(C)(C)C [(C2 H3)2 CHCO-Tbg-Asp(pyrrolidino)-Asp(cyPn)-(L-leucinol)] ({Butanoyl(2-Et)}-[Tle]D(Pyrrolidide)[Asp(3,3-(CH2)4)][Leu(ol)]) | 500 nM |
| CC[C@H](C)[C@H](NC(=O)CCC(C)C)C(=O)N[C@@H](CC(=O)N1CCCC1)C(=O)N[C@@H](CC(=O)O)C(=O)N[C@@H](CC(C)C)C(=O)O [(CH3)2 CHCH2 CH2 CO-Ile-Asp(pyrrolidino)-Asp-Leu-OH] ({Pentanoyl(4-Me)}-ID(Pyrrolidide)DL-OH) | 3000 nM |
| CCC(CC)C(=O)N[C@H](C(=O)N[C@@H](CC(=O)N1CCCC1)C(=O)N[C@@H](CC(=O)O)C(=O)NCCC(C)(C)C)C1CCCC1 [(C2 H5)2 CHCO-Cpg-Asp(pyrrolidino)-Asp-NHCH2 CH2 C(CH)3] | 35000 nM |
| CCC(CC)C(=O)N[C@H](C(=O)N[C@@H](CC(=O)N1CCCC1)C(=O)N[C@@H](CC(=O)O)C(=O)N[C@H](CO)[C@@H](C)CC)C(C)(C)C [(C2 H5)2 CHCO-Tbg-Asp(pyrrolidino)-Asp-(L-isoleucinol)] | 11000 nM |
| CCCCCC[C@H](C)OC(=O)C[C@H](NC(=O)[C@@H](NC(=O)CCC(C)C)[C@@H](C)CC)C(=O)N[C@@H](CC(=O)O)C(=O)N[C@@H](CC(C)C)C(=O)O [(CH3)2 CHCH2 CH2 CO-Ile-Asp(1-methylheptyloxy)-Asp-Leu-OH] ({Pentanoyl(4-Me)}-ID(O(2S-octyl))DL-OH) | > 10000 nM |
| CCC(CC)C(=O)N[C@H](C(=O)N[C@@H](CC(=O)N1CCCC1)C(=O)N[C@@H](CC(=O)O)C(=O)NCCC(C)(C)C)C(C)(C)C [(C2 H5)2 CHCO-Tbg-Asp(pyrrolidino)-Asp-NHCH2 CH2 C(CH)3] | 18000 nM |
| CC[C@H](C)[C@H](NC(=O)c1ccccc1-c1ccccc1)C(=O)N[C@@H](CC(=O)N1CCCC1)C(=O)N[C@@H](CC(=O)O)C(=O)N[C@@H](CC(C)C)c1nnn[nH]1 [2-Biphenylcarbonyl-Ile-Asp(pyrrolidino)-Asp-NHCH--[CH2 CH(CH3)2-5-1H-tetrazole] | 13800 nM |
| CC[C@H](C)[C@H](NC(=O)CC(C)C)C(=O)N[C@@H](CC(=O)N1CCCC1)C(=O)N[C@@H](CC(=O)O)C(=O)N[C@@H](CC(C)C)C(=O)O [(CH3)2 CHCH2 CO-Ile-Asp(pyrrolidino)-Asp-Leu-OH] (Isovaleryl-ID(Pyrrolidide)DL-OH) | 2700 nM |
| CC[C@H](C)[C@H](NC(=O)C(CCCCc1ccccc1)C(C)C)C(=O)N[C@@H](CC(=O)N1CCCC1)C(=O)N[C@@H](CC(=O)O)C(=O)N[C@@H](CC(C)C)C(=O)O (stereo partly drawn) [[d,1-Ph(CH2)4 -CH[CH(CH3)2 ]CO]-Ile-Asp(pyrrolidino)-Asp-Leu-OH] (X5-ID(Pyrrolidide)DL-OH) | 1300 nM |
| CC[C@H](C)[C@H](NC(=O)C1C(C)(C)C1(C)C)C(=O)N[C@@H](CC(=O)N1CCCC1)C(=O)N[C@@H](CC(=O)O)C(=O)N[C@@H](CC(C)C)C(=O)O [(2,2,3,3-Tetramethylcyclopropyl)carbonyl-Ile-Asp(pyrrolidino)-Asp-Leu-OH] ({cPrCO(2,2,3,3-Me4)}-ID(Pyrrolidide)DL-OH) | 1400 nM |
| CCC(CC)C(=O)N[C@H](C(=O)N[C@@H](CC(=O)N1CCCC1)C(=O)N[C@@H](CC(=O)O)C(=O)N[C@H](CO)CC1CCCCC1)C(C)(C)C [(C2 H5)CHCO-Tbg-Asp(pyrrolidino)-Asp-NH--CH(cyclohexylmethyl)CH2 OH] | 10500 nM |
| CCCCCCCCN(C)C(=O)C[C@H](NC(=O)[C@@H](NC(=O)C(CC)CC)C(C)(C)C)C(=O)N[C@H](C(=O)N[C@@H](CC(C)C)C(=O)O)C1(C(=O)O)CCC1 [(C2 H5)2 CHCO-Tbg-Asp(N-Me-N-octyl)-Asp(cyBu)-Leu-OH] ({Butanoyl(2-Et)}-[Tle]D(X6)[Gly(1-COOH-cBu)]L-OH) | 200 nM |
| CC[C@H](C)[C@H](NC(=O)c1ccccc1-c1ccccc1)C(=O)N[C@@H](CC(=O)N1CCOCC1)C(=O)N[C@@H](CC(=O)O)C(=O)N[C@@H](CC(C)C)C(=O)O [2-Biphenylylcarbonyl-Ile-Asp(morpholino)-Asp-Leu-OH] ({Benzoyl(2-Ph)}-ID(Morpholide)DL-OH) | 7200 nM |
| CCC(CC)C(=O)N[C@@H](Cc1cccs1)C(=O)N[C@@H](CC(=O)N1CCCC1)C(=O)N[C@@H](CC(=O)O)C(=O)NCCC(C)(C)C [(C2 H5)2 CHCO-NHCH(2-thienylmethyl)CO-Asp(pyrrolidino)-Asp-NHCH2 CH2 C(CH3)3] | 60000 nM |
| CCCCCC[C@H](C)OC(=O)C[C@H](NC(=O)[C@@H](NC(=O)C(CC)CC)C(C)(C)C)C(=O)N[C@H](C(=O)N[C@@H](CC(C)C)C(=O)O)C1(C(=O)O)CCC1 [(C2 H5)2 CHCO-Tbg-Asp(1-methylheptyloxy)-Asp(cyBu)-Leu-OH] ({Butanoyl(2-Et)}-[Tle]D(O(2S-octyl))[Gly(1-COOH-cBu)]L-OH) | 500 nM |
| CCC(CC)C(=O)N[C@H](C(=O)N[C@@H](CC(=O)N1CCCC1)C(=O)N[C@@H](CC(=O)O)C(=S)N[C@@H](CC(C)C)C(=O)O)C(C)(C)C [(C2 H5)2 CHCO-Tbg-Asp(pyrrolidino)-Asp.PSI.[CSNH]Leu-OH] | 1900 nM |
| CCC(CC)C(=O)N[C@H](C(=O)N[C@@H](CC(=O)N1CCCC1)C(=O)N[C@@H](CC(=O)O)C(=O)N[C@@H](CC(C)C)C(=O)O)[C@@H](C)OCc1ccccc1 [(C2 H5)2 CHCO-Thr(OBz)-Asp(pyrrolidino)-Asp-Leu-OH] ({Butanoyl(2-Et)}-T(Bn)D(Pyrrolidide)DL-OH) | 3400 nM |
| CCC(CC)C(=O)N[C@H](C(=O)N[C@@H](CC(=O)N1CCCC1)C(=O)N[C@H](C(=O)N[C@@H](CC(C)C)C(=O)O)C(CC)(CC)C(=O)O)C(C)(C)C [(C2 H5)2 CHCO-Tbg-Asp(pyrrolidino)-Asp(diEt)-Leu-OH] | 100 nM |
| CCCCCC[C@H](C)OC(=O)C[C@H](NC(=O)[C@@H](NC(=O)C(CC)CC)C(C)(C)C)C(=O)N[C@H](C(=O)N[C@@H](CC(C)C)C(=O)O)C1(C(=O)O)CCCC1 [(C2 H5)2 CHCO-Tbg-Asp(1-methylheptyloxy)-Asp(cyPn)-Leu-OH] ({Butanoyl(2-Et)}-[Tle]D(O(2S-octyl))[Asp(3,3-(CH2)4)]L-OH) | 370 nM |
| CC(C)C[C@H](NC(=O)[C@H](CC(=O)O)NC(=O)[C@H](CC(=O)N1CCCC1)NC(=O)[C@@H](NC(=O)[C@@H](O)C(C)C)C(C)(C)C)C(=O)O [[(S)-(CH3)2 CHCH(OH)CO]-Tbg-Asp(pyrrolidino)-Asp-Leu-OH] (H-[Hiv][Tle]D(Pyrrolidide)DL-OH) | 2800 nM |
| CCCCC(C(=O)O)[C@H](NC(=O)[C@H](CC(=O)N1CCCC1)NC(=O)[C@@H](NC(=O)C(CC)CC)C(C)(C)C)C(=O)N[C@@H](CC(C)C)C(=O)O (stereo partly drawn) [(C2 H5)2 CHCO-Tbg-Asp(pyrrolidino)-Asp(Bu)-Leu-OH] | 2000 nM |
| CCC(CC)C(=O)N[C@H](C(=O)N[C@@H](CC(=O)N1CCCC1)C(=O)N[C@@H](CC(=O)O)C(=O)NCCC(C)(C)C)[C@@H](C)OC [(C2 H5)2 CHCO-Thr(OMe)-Asp(pyrrolidino)-Asp-NHCH2 CH2 C(CH3)3] | 75000 nM |

Same assay, conditions: separated diastereoisomer, first eluted on HPLC (footnotes 1, 3); mean of four assays

| SMILES | IC50 |
| --- | --- |
| CC[C@H](C)[C@H](NC(=O)C1C(C)CCC(C)C1C(=O)OCCc1ccccc1)C(=O)N[C@@H](CC(=O)N1CCCC1)C(=O)N[C@@H](CC(=O)O)C(=O)N[C@@H](CC(C)C)C(=O)O (stereo partly drawn) [[(d,1)1α,2α,3β,6β-3,6-Dimethyl-2-(phenylethoxycarbonyl)cyclohexanecarbonyl]-Ile-Asp(pyrrolidino)-Asp-Leu-OH] (X1-ID(Pyrrolidide)DL-OH) | 500 nM |
| CC[C@H](C)[C@H](NC(=O)C1CCCCC1C(=O)CCc1ccccc1)C(=O)N[C@@H](CC(=O)N(CC)CC)C(=O)N[C@@H](CC(=O)O)C(=O)N[C@@H](CC(C)C)C(=O)O (stereo partly drawn) [[(d,1)-2-(3-Phenyl-1-oxopropyl)cyclohexanecarbonyl]-Ile-Asp(NEt2)-Asp-Leu-OH] (X3-ID(NEt2)DL-OH) | 1400 nM |

Same assay, conditions: separated diastereoisomer, first value listed (footnote 5, order not stated); mean of four assays

| SMILES | IC50 |
| --- | --- |
| CCC(CC)C(=O)N[C@H](C(=O)N[C@@H](CC(=O)N1CCCC1)C(=O)NC(C(=O)N[C@@H](CC(C)C)C(=O)O)C(C)(C)C(=O)O)C(C)(C)C (stereo partly drawn) [(C2 H5)2 CHCO-Tbg-Asp(pyrrolidino)-Asp(diMe)-Leu-OH] ({Butanoyl(2-Et)}-[Tle]D(Pyrrolidide)[ξAsp(3,3-Me2)]L-OH) | 140 nM |

Same assay, conditions: separated diastereoisomer, second eluted on HPLC (footnotes 1, 3); mean of four assays

| SMILES | IC50 |
| --- | --- |
| CC[C@H](C)[C@H](NC(=O)C1C(C)CCC(C)C1C(=O)OCCc1ccccc1)C(=O)N[C@@H](CC(=O)N1CCCC1)C(=O)N[C@@H](CC(=O)O)C(=O)N[C@@H](CC(C)C)C(=O)O (stereo partly drawn) [[(d,1)1α,2α,3β,6β-3,6-Dimethyl-2-(phenylethoxycarbonyl)cyclohexanecarbonyl]-Ile-Asp(pyrrolidino)-Asp-Leu-OH] (X1-ID(Pyrrolidide)DL-OH) | 2300 nM |
| CC[C@H](C)[C@H](NC(=O)C1CCCCC1C(=O)CCc1ccccc1)C(=O)N[C@@H](CC(=O)N(CC)CC)C(=O)N[C@@H](CC(=O)O)C(=O)N[C@@H](CC(C)C)C(=O)O (stereo partly drawn) [[(d,1)-2-(3-Phenyl-1-oxopropyl)cyclohexanecarbonyl]-Ile-Asp(NEt2)-Asp-Leu-OH] (X3-ID(NEt2)DL-OH) | 34000 nM |

Same assay, conditions: separated diastereoisomer, second value listed (footnote 5, order not stated); mean of four assays

| SMILES | IC50 |
| --- | --- |
| CCC(CC)C(=O)N[C@H](C(=O)N[C@@H](CC(=O)N1CCCC1)C(=O)NC(C(=O)N[C@@H](CC(C)C)C(=O)O)C(C)(C)C(=O)O)C(C)(C)C (stereo partly drawn) [(C2 H5)2 CHCO-Tbg-Asp(pyrrolidino)-Asp(diMe)-Leu-OH] ({Butanoyl(2-Et)}-[Tle]D(Pyrrolidide)[ξAsp(3,3-Me2)]L-OH) | 9100 nM |
